Experimental findings from US20260125357A1, “LACTATE ENHANCING COMPOUNDS AND USES THEREOF” (GLIAPHARM SA, priority 2022, published 2026) are described below.

One assay concerns primary astrocytes. The assay can be described thus: MTT mitochondrial activity assay in primary astrocytes. It counts as cell-based, mouse. Conditions: different concentrations, after 1.5 h or 24 h. The procedure: Primary cultures of cerebrocortical astrocytes were obtained from 1 to 2-day-old OF1 mouse pups (Charles River Laboratories). Briefly, cortices were isolated and minced in small pieces under a dissecting microscope. The cells were incubated for 30 min at 37° C. in a solution containing 20 U/ml papain, 1 mM L-cysteine and 10 kU/ml DNase I. After dissociation, papain activity was stopped by the addition of fetal calf serum (FCS). Single-cell suspension was then obtained by mechanical dissociation, which consisted in cells trituration in a DMEM D7777 medium supplemented with 44 mm NaHCO3, 10 ml/L antibiotic/antimycotic solution and 10% FCS. The cells were seeded at an average density of ˜10′000 cells/cm^2 on poly-D-lysine coated 96- or 12-well culture plates, depending on their use, and grown in DMEM D7777 medium supplemented with 44 mm NaHCO3, 10 ml/L antibiotic/antimycotic solution and 10% FCS at 37° C. in a humidified atmosphere containing 5% CO2/95% air. Culture medium was renewed twice a week. Cells were stimulated and harvested between DIV14 and DIV17, when confluence and cell growth were optimal.
To monitor mitochondrial activity in astrocytes, which is linked to the metabolic process of glycolysis and production of lactate, astrocytes in 96-well plates were stimulated for 24 h (37° C. 5% CO2/95% air) with the compounds of the invention ranging from 10 nM to 10 μM.
After stimulation, 5 mg/ml thiazol blue tetrazolium bromide (MTT) in D5030 medium complemented with 5 mM D-glucose and 44 mM sodium bicarbonate (pH 7.2) was added to each well, and cells were incubated for 4 h at 37° C. (5% CO2). The medium was then removed and the amount of reduced MTT, i.e formazan, solubilized in DMSO (50 μl/well) was determined using a spectrophotometer (absorbance of 570 nm).
The mitochondrial activity was monitored in MTT colorimetric assay in primary astrocytes treated with Compounds (1), (2), (3), (4) (5), (9) and (10) at different concentrations after 1.5 h (FIG. 2 A, B, D, E, F, C, H, respectively) or 24 h (FIG. 2 H, I, K, L, M, J, N, respectively).

Assay [1] has as its system neurons in astrocyte-neuron co-culture. The assay can be described thus: MTT mitochondrial activity in neurons from astrocyte-neuron co-cultures. It counts as cell-based, mouse. Conditions: 10 μM, 2 hours. As to the method:
Primary mouse neuronal cultures were obtained from 18-day OF1 mouse embryos (Charles River Laboratories). Briefly, cortices were isolated and minced in small pieces under a dissecting microscope. The cells were incubated for 30 min at 37° C. in a solution containing 20 U/ml papain, 1 mM L-cysteine and 10 kU/ml DNase I. After dissociation, papain activity was stopped by the addition of fetal calf serum (FCS). Single-cell suspension was then obtained by mechanical dissociation, which consisted in cells trituration in a Neurobasal+B-27+Glutamax medium. The cells were seeded at an average density of ˜1.5×10^5 cells/cm^2 on poly-D-lysine coated 12-well culture plates and grown in Neurobasal medium supplemented with B-27 and Glutamax at 37° C. in a humidified atmosphere containing 5% CO2/95% air. Neurons were used at DIV10. […]
Neuron pure culture or astrocyte-neuron co-cultures were treated for 2 hours with compound (2) at 10 μM in a solution composed of Neurobasal complemented with B-27 and Glutamax, as well as 0.25 mg/ml thiazol blue tetrazolium bromide (MTT). […] After stimulation, empty coverslips (neuron pure cultures) or astrocytes on coverslips (astrocyte-neuron co-cultures) were separated from neurons, medium was removed and the amount of reduced MTT, i.e formazan, solubilized in DMSO (50 μl/well) was determined using a spectrophotometer (absorbance of 570 nm).

For assay [2], the system named is mice injected with streptozotocin. Briefly: Inhibitory Avoidance in streptozotocin ICV injection model of Alzheimer's disease. It counts as in vivo, mouse. The note with it: 1 day after training, vs Veh. The procedure: Craniotomies are performed on isoflurane-anesthetized mice for injections of Veh or streptozotocin in cerebral ventricles (coordinates: −0.5 mm (to bregma), lateral+/−1.0 mm (to midline), ventral −2.2 mm (to dura)) (Kelliny S. et al., Molecular Neurobiology, 2021). A solution composed of Veh (0.9% NaCl) or streptozotocin (5 mg/kg) prepared in 1 μl artificial cerebrospinal fluid solution (aCSF, 20 mM citrate buffer, pH 4.2) is injected in both cerebral ventricles using Hamilton micro syringe at a constant speed of 100-200 nl/min. After injection, skin of the skull is sutured, and mice is monitored closely and receives analgesic treatment for at least 4 days. After mice had fully recovered from surgery, memory tests including Morris Water Maze (MWM), Inhibitory Avoidance (IA) and Novel Object Recognition (NOR), as described below, are performed. […]
Inhibitory avoidance (IA) test is a well-established memory paradigm in rodents that measures contextual memory associated with a mild electrical footshock in a specific context (the dark compartment of the IA chamber). […] Memory retention was measured at 24 h after training by placing the mouse back into the lit compartment and recording its latency (in seconds) to enter the dark compartment. […]

As for `COc1cc2ccnc(Nc3ccc(S(C)(=O)=O)cc3)c2cc1OC` [Compound 2, 6,7-dimethoxy-N-(4-methylsulfonylphenyl)isoquinolin-1-amine], in the assay with primary astrocytes, the “mitochondrial activity (MTT colorimetric assay)” value is reported as “none of the selected compounds had direct effect on mitochondrial activity”. The “mitochondrial activity of neurons (MTT)” value in assay [1] is “enhances mitochondrial activity of neurons in astrocyte-neuron co-culture”. For the same compound, the “memory in the Inhibitory Avoidance” value in assay [2] (10 mg/kg) and in assay [2] (30 mg/kg) was “significantly higher” in each case.
